Laboratory results reported in patent publication US4537777A, “A52688 Antibiotics and process for their production” (priority 1983, dated 1985).
Where two headings read alike, the source gives them in different places.

How the values were obtained:
[1] = test system: Staphylococcus aureus; experiment: standard disc-plate assay; assay type: cell-based; conditions: read-out: Zone Diameters
[2] = test system: Bacillus subtilis; experiment: standard disc-plate assay; assay type: cell-based; conditions: read-out: Zone Diameters
[3] = test system: Micrococcus luteus; experiment: standard disc-plate assay; assay type: cell-based; conditions: read-out: Zone Diameters
[4] = test system: Mycobacterium avium; experiment: standard disc-plate assay; assay type: cell-based; conditions: read-out: Zone Diameters
[5] = test system: Saccharomyces pastorianus; experiment: standard disc-plate assay; assay type: cell-based; conditions: read-out: Zone Diameters
[6] = test system: Neurospora crassa; experiment: standard disc-plate assay; assay type: cell-based; conditions: read-out: Zone Diameters
[7] = test system: Candida albicans; experiment: standard disc-plate assay; assay type: cell-based; conditions: read-out: Zone Diameters
[8] = test system: Trichophyton mentagroprophytes; experiment: standard disc-plate assay; assay type: cell-based; conditions: read-out: Zone Diameters
[9] = test system: Proteus vulgaris; experiment: standard disc-plate assay; assay type: cell-based; conditions: read-out: Zone Diameters
[10] = test system: Salmonella gallinarium; experiment: standard disc-plate assay; assay type: cell-based; conditions: read-out: Zone Diameters
[11] = test system: Escherichia coli; experiment: standard disc-plate assay; assay type: cell-based
Description: In Table IX the standard discplate-assay activity of the A52688 factors is summarized. Activity is measured as the diameter (in mm) of the observed zone of inhibition; the diameter of the disc used in each case was 6.35 mm.

[12] = test system: Pseudomonas aeruginosa; experiment: standard disc-plate assay; assay type: cell-based; conditions: read-out: Zone Diameters
[13] = test system: Serratia marcescens; experiment: standard disc-plate assay; assay type: cell-based; conditions: read-out: Zone Diameters
[14] = test system: Pseudomonas solanacearum; experiment: microbe, parasite or virus in culture; assay type: cell-based; conditions: Ralstonia solanacearum, read-out: Zone Diameters
[15] = test system: Bacillus stereothermophilus; experiment: standard disc-plate assay; assay type: cell-based; conditions: read-out: Zone Diameters
[16] = acute toxicity in mice; conditions: mouse, in vivo, ip, intraperitoneal, formulated in aqueous PVP, read-out: Intraperitoneal LD50
Description: ^a Compounds formulated in aqueous PVP
^b Route test compound administered

[17] = test system: Adenocarcinoma 755; experiment: murine-transplanted tumor adenocarcinoma 755 in mice; assay type: in vivo
Description: A52688 factors A, C, D, E, F, G, H, J and K and the specified acyl esters of factors A, C, D, E, G, H, J and K are especially useful as oncolytic agents.
Table X summarizes the results of experiments in which mice bearing the murine-transplanted tumor adenocarcinoma 755 were treated with compounds of this invention. In each test the compound was administered by the intraperitoneal route at specified dose levels. The compound was administered over a ten-day period, either on a daily basis or on days one, five and nine, as indicated.

[18] = conc 0.1 mg/ml, disc 6.35 mm, ^b overgrowth: factor B
[19] = conc 0.1 mg/ml, disc 6.35 mm, ^b overgrowth: factor F
[20] = conc 0.1 mg/ml, disc 6.35 mm, ^b overgrowth: factors B, C, F
[21] = conc 0.1 mg/ml, disc 6.35 mm, ^b overgrowth: factors A, C, E, F, G
[22] = conc 0.1 mg/ml, disc 6.35 mm, read-out: Zone Diameters
[23] = in minimal medium, conc 0.1 mg/ml, disc 6.35 mm, read-out: Zone Diameters
[24] = conc 0.1 mg/ml, disc 6.35 mm, ^b overgrowth: factor C
[25] = read-out: Zone Diameters, conc 0.1 mg/ml, disc 6.35 mm
[26] = read-out: Zone Diameters, in minimal medium, conc 0.1 mg/ml, disc 6.35 mm
[27] = 0.25 mg/kg i.p., daily for 10 days
[28] = 0.25 mg/kg i.p., daily for 10 days, of 10 mice tested (9 for factor E)
[29] = 0.50 mg/kg i.p., daily for 10 days
[30] = 0.50 mg/kg i.p., daily for 10 days, of 10 mice tested (8 for factor E)

Q: Which zone of inhibition at 100 µg/mL [1, 18] does the source give for [C-]#[N+]C(=Cc1ccc(O)cc1)C(=CC1CCC(OC(=O)C=C(C)C)CC1)[N+]#[C-] (stereo not shown) [Factor D] here?
A: 18 mm

Q: What about the zone of inhibition at 100 µg/mL ([2]; conc 0.1 mg/ml, disc 6.35 mm) of the same compound?
A: 18 mm

Q: What about the zone of inhibition at 100 µg/mL ([3]; conc 0.1 mg/ml, disc 6.35 mm) of the same compound?
A: 26 mm

Q: And the zone of inhibition at 100 µg/mL [4, 19]?
A: 13 mm

Q: What about the zone of inhibition at 100 µg/mL [5, 20] of the same compound?
A: 13 mm

Q: And the zone of inhibition at 100 µg/mL ([6]; conc 0.1 mg/ml, disc 6.35 mm)?
A: 22 mm

Q: What about the zone of inhibition at 100 µg/mL ([7]; conc 0.1 mg/ml, disc 6.35 mm) of the same compound?
A: 19 mm

Q: What about the zone of inhibition at 100 µg/mL ([8]; conc 0.1 mg/ml, disc 6.35 mm) of the same compound?
A: 21 mm

Q: What about the zone of inhibition at 100 µg/mL [9, 21] of the same compound?
A: 12 mm

Q: What about the zone of inhibition at 100 µg/mL ([10]; conc 0.1 mg/ml, disc 6.35 mm) of the same compound?
A: 14 mm

Q: And the zone of inhibition at 100 µg/mL [11, 22]?
A: 15 mm

Q: What about the zone of inhibition at 100 µg/mL [11, 23] of the same compound?
A: 11 mm

Q: What about the zone of inhibition at 100 µg/mL ([12]; conc 0.1 mg/ml, disc 6.35 mm) of the same compound?
A: 13 mm

Q: And the zone of inhibition at 100 µg/mL [13, 24]?
A: 12 mm

Q: What about the zone of inhibition at 100 µg/mL [14] of the same compound?
A: 17 mm

Q: And the zone of inhibition at 100 µg/mL ([15]; conc 0.1 mg/ml, disc 6.35 mm)?
A: 21 mm

Q: What about the LD50 [16] of the same compound?
A: 0.992 mg/kg

Q: With [C-]#[N+]C(=CC1=C[C@@H](O)[C@@H](O)CC1)C(=CC1CCC(OC(=O)C=C(C)C)CC1)[N+]#[C-] (relative stereo) [Factor E] as the compound, how does the zone of inhibition at 100 µg/mL [1] read?
A: 21 mm

Q: What about the zone of inhibition at 100 µg/mL [2] of the same compound?
A: 29 mm

Q: And the zone of inhibition at 100 µg/mL [3]?
A: 24 mm

Q: And the zone of inhibition at 100 µg/mL [4]?
A: 15 mm

Q: And the zone of inhibition at 100 µg/mL [5]?
A: 20 mm

Q: And the zone of inhibition at 100 µg/mL [6]?
A: 34 mm

Q: And the zone of inhibition at 100 µg/mL [7]?
A: 29 mm

Q: What about the zone of inhibition at 100 µg/mL [8] of the same compound?
A: 43 mm

Q: What about the zone of inhibition at 100 µg/mL [9] of the same compound?
A: 21 mm

Q: What about the zone of inhibition at 100 µg/mL [10] of the same compound?
A: 19 mm

Q: What about the zone of inhibition at 100 µg/mL [11, 25] of the same compound?
A: 18 mm

Q: What about the zone of inhibition at 100 µg/mL [11, 26] of the same compound?
A: 16 mm

Q: What about the zone of inhibition at 100 µg/mL [12] of the same compound?
A: 17 mm

Q: What about the zone of inhibition at 100 µg/mL [13] of the same compound?
A: 17 mm

Q: And the zone of inhibition at 100 µg/mL ([14]; conc 0.1 mg/ml)?
A: 24 mm

Q: What about the zone of inhibition at 100 µg/mL [15] of the same compound?
A: 30 mm

Q: And the “Percent Tumor Inhibition” value [17, 27]?
A: 22%

Q: And the “Toxic Deaths” value [17, 28]?
A: 0

Q: And the “Percent Tumor Inhibition” value [17, 29]?
A: 74%

Q: And the “Toxic Deaths” value [17, 30]?
A: 3

Q: What about the “Percent Tumor Inhibition” value ([17]; 1.00 mg/kg i.p., daily for 10 days) of the same compound?
A: toxic

Q: What about the “Toxic Deaths” value ([17]; 1.00 mg/kg i.p., daily for 10 days, of 10 (factor E) or 9 (factor F) mice tested) of the same compound?
A: 10

Q: What about the LD50 [16] of the same compound?
A: 3.54 mg/kg

Q: With [C-]#[N+]C(=CC1CCC(OC(=O)C=C(C)C)CC1)C(=CC1(OC(C)=O)C=CC(O)CC1)[N+]#[C-] (stereo not shown) [Factor G] as the compound, how does the zone of inhibition at 100 µg/mL [1, 18] read?
A: 36 mm

Q: And the zone of inhibition at 100 µg/mL ([2]; conc 0.1 mg/ml, disc 6.35 mm)?
A: 30 mm

Q: What about the zone of inhibition at 100 µg/mL ([3]; conc 0.1 mg/ml, disc 6.35 mm) of the same compound?
A: 32 mm

Q: What about the zone of inhibition at 100 µg/mL [4, 19] of the same compound?
A: 10 mm

Q: And the zone of inhibition at 100 µg/mL [5, 20]?
A: 24 mm

Q: What about the zone of inhibition at 100 µg/mL ([6]; conc 0.1 mg/ml, disc 6.35 mm) of the same compound?
A: 41 mm

Q: And the zone of inhibition at 100 µg/mL ([7]; conc 0.1 mg/ml, disc 6.35 mm)?
A: 35 mm

Q: What about the zone of inhibition at 100 µg/mL ([8]; conc 0.1 mg/ml, disc 6.35 mm) of the same compound?
A: 44 mm

Q: What about the zone of inhibition at 100 µg/mL [9, 21] of the same compound?
A: 27 mm

Q: And the zone of inhibition at 100 µg/mL ([10]; conc 0.1 mg/ml, disc 6.35 mm)?
A: 23 mm

Q: And the zone of inhibition at 100 µg/mL [11, 22]?
A: 20 mm

Q: And the zone of inhibition at 100 µg/mL [11, 23]?
A: 18 mm

Q: What about the zone of inhibition at 100 µg/mL ([12]; conc 0.1 mg/ml, disc 6.35 mm) of the same compound?
A: 23 mm

Q: What about the zone of inhibition at 100 µg/mL [13, 24] of the same compound?
A: 17 mm

Q: And the zone of inhibition at 100 µg/mL [14]?
A: 31 mm

Q: What about the zone of inhibition at 100 µg/mL ([15]; conc 0.1 mg/ml, disc 6.35 mm) of the same compound?
A: 33 mm

Q: What about the “Percent Tumor Inhibition” value ([17]; 0.50 mg/kg i.p., days 1, 5 and 9) of the same compound?
A: 10%

Q: What about the “Toxic Deaths” value ([17]; 0.50 mg/kg i.p., days 1, 5 and 9, of 10 mice tested) of the same compound?
A: 0

Q: And the “Percent Tumor Inhibition” value ([17]; 0.70 mg/kg i.p., days 1, 5 and 9)?
A: 20%

Q: What about the “Toxic Deaths” value ([17]; 0.70 mg/kg i.p., days 1, 5 and 9, of 10 mice tested) of the same compound?
A: 0

Q: And the “Percent Tumor Inhibition” value ([17]; 1.00 mg/kg i.p., days 1, 5 and 9)?
A: 54%

Q: What about the “Toxic Deaths” value ([17]; 1.00 mg/kg i.p., days 1, 5 and 9, of 10 mice tested) of the same compound?
A: 1

Q: And the “Percent Tumor Inhibition” value ([17]; 1.40 mg/kg i.p., days 1, 5 and 9)?
A: 72%

Q: And the “Toxic Deaths” value ([17]; 1.40 mg/kg i.p., days 1, 5 and 9, of 10 mice tested)?
A: 6

Q: What about the “Percent Tumor Inhibition” value ([17]; 2.00 mg/kg i.p., days 1, 5 and 9) of the same compound?
A: 60%

Q: What about the “Toxic Deaths” value ([17]; 2.00 mg/kg i.p., days 1, 5 and 9, of 10 mice tested) of the same compound?
A: 7

Q: What about the “Percent Tumor Inhibition” value ([17]; 2.80 mg/kg i.p., days 1, 5 and 9) of the same compound?
A: toxic

Q: What about the “Toxic Deaths” value ([17]; 2.80 mg/kg i.p., days 1, 5 and 9, of 10 mice tested) of the same compound?
A: 10

Q: What about the LD50 [16] of the same compound?
A: 7.94 mg/kg

Q: What does the source list for [C-]#[N+]C(=CC1=C[C@@H](O)[C@H](O)CC1)C(=CC1CCC(O)CC1)[N+]#[C-] (relative stereo) [Factor C]?
A: zone of inhibition at 100 µg/mL [1]: 16 mm; zone of inhibition at 100 µg/mL [2]: 23 mm; zone of inhibition at 100 µg/mL [3]: 33 mm; zone of inhibition at 100 µg/mL [4]: 18 mm; zone of inhibition at 100 µg/mL [5]: 15 mm; zone of inhibition at 100 µg/mL [6]: 22 mm; zone of inhibition at 100 µg/mL [7]: 16 mm; zone of inhibition at 100 µg/mL [8]: 15 mm; zone of inhibition at 100 µg/mL [9]: 26 mm; zone of inhibition at 100 µg/mL [10]: 38 mm; zone of inhibition at 100 µg/mL [11, 25]: 24 mm; zone of inhibition at 100 µg/mL [11, 26]: 20 mm; zone of inhibition at 100 µg/mL [13]: 15 mm; zone of inhibition at 100 µg/mL ([14]; conc 0.1 mg/ml): 20 mm; zone of inhibition at 100 µg/mL [15]: 35 mm; Percent Tumor Inhibition ([17]; 0.125 mg/kg i.p., daily for 10 days): 60%; Toxic Deaths ([17]; 0.125 mg/kg i.p., daily for 10 days, of 10 mice tested): 0; Percent Tumor Inhibition [17, 27]: 47%; Toxic Deaths [17, 28]: 0; Percent Tumor Inhibition [17, 29]: 72%; Toxic Deaths [17, 30]: 5; LD50 [16]: < 2.34 mg/kg
